Data reported in patent US9125828B2, “MOC compositions” (Givaudan SA, priority 2010, dated 2015).

Test system: axillary malodour
Assay: Deodorancy of pro-perfumes compared with their breakdown products
Type: in vivo
Details: pro perfumes that undergo scission when exposed to UV light; no data given
Description: The effectiveness of compositions of the present invention comprising 2-Ethoxy-4-formylphenyl (E)-3-(2-hydroxyphenyl) acrylate and/or (E)-Dec-9-enyl 3-(2-hydroxyphenyl) acrylate, two group A materials, in axillary malodour counteracting deodorant is particularly surprising. These materials are pro perfumes that undergo scission into other compounds when exposed to UV light, this is disclosed in EP 936211. The use of materials that require light activation is counter-intuitive for application in underarm products such as deodorants and antiperspirants.

Row | SMILES | deodorancy relative to breakdown products
1 | CCOc1cc(C=O)ccc1OC(=O)/C=C/c1ccccc1O [2-Ethoxy-4-formylphenyl (E)-3-(2-hydroxyphenyl)acrylate] | better deodorancy than their breakdown products
2 | C=CCCCCCCCCOC(=O)/C=C/c1ccccc1O [(E)-Dec-9-enyl 3-(2-hydroxyphenyl)acrylate] | better deodorancy than their breakdown products
